In patent US11529341B2, “Bicyclic compounds as inhibitors of PD1/PD-L1 interaction/activation” (JUBILANT PRODEL LLC, priority 2018, dated 2022):

target: T1, PD-1/PD-L1 interaction (Homo sapiens, UniProt Q9NZQ7); assay: PD-1/PD-L1 Homogenous Time-Resolved Fluorescence (HTRF) binding assay (CisBio kit); conditions: Biochemical PD1/PD-L1 inhibition
T1 construct: Tag1 (undisclosed kit tag); purchased CisBio 63ADK000CPAPEG
Outline: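 Tagged PD-L1 and PD-1 proteins preincubated with compound 15 min, then anti-Tag1-Eu3+ donor and anti-Tag2-XL665 acceptor added, 1 h at room temperature. Emission read at 665 and 620 nm; signal expressed as HTRF ratio (665/620)×10^4, loss of signal indicating blocked binding.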

T1 sequence (Q9NZQ7 19-238 limits assumed): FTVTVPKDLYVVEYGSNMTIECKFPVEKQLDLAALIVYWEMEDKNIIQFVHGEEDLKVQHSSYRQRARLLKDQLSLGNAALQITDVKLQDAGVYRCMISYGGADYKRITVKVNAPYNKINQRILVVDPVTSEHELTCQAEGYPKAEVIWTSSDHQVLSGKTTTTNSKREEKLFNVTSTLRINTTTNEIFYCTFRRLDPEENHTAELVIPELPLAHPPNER

| Compound | IC50 |
| --- | --- |
| CC(=O)NCCCCCC(=O)NCc1c(OCc2cccc(C#N)c2)cc(OCc2cccc(-c3ccccc3)c2C)c2c1CCC2 [Compound 91, 6-acetamido-N-((5-((3-cyanobenzyl)oxy)-7-((2-methyl-[1,1′-biphenyl]-3-yl)methoxy)-2,3-dihydro-1H-inden-4-yl)methyl)hexanamide] | > 500 nM |
| Cc1c(COc2cc(OCc3cccc(C#N)c3)c(CN(C)C)c3c2CCC3)cccc1-c1ccccc1 [Compound 92, 3-(((4-((dimethylamino)methyl)-7-((2-methyl-[1,1′-biphenyl]-3-yl)methoxy)-2,3-dihydro-1H-inden-5-yl)oxy)methyl)benzonitrile] | < 100 nM |
| CC(=O)NCCNCc1c(OCc2cncc(C(=O)O)c2)cc(OCc2cccc(-c3ccccc3)c2C)c2c1CCC2 [Compound 93, 5-(((4-(((2-acetamidoethyl)amino)methyl)-7-((2-methyl-[1,1′-biphenyl]-3-yl)methoxy)-2,3-dihydro-1H-inden-5-yl)oxy)methyl)nicotinic acid] | < 100 nM |
| CC(=O)NCCNCc1c(OCc2cncc(C(N)=O)c2)cc(OCc2cccc(-c3ccccc3)c2C)c2c1CCC2 [Compound 94, 5-(((4-(((2-acetamidoethyl)amino)methyl)-7-((2-methyl-[1,1′-biphenyl]-3-yl)methoxy)-2,3-dihydro-1H-inden-5-yl)oxy)methyl)nicotinamide] | < 100 nM |
| CC(=O)NCCNCc1c(OCc2cccc(C(N)=O)c2)cc(OCc2cccc(-c3ccccc3)c2C)c2c1CCC2 [Compound 95, 3-(((4-(((2-acetamidoethyl)amino)methyl)-7-((2-methyl-[1,1′-biphenyl]-3-yl)methoxy)-2,3-dihydro-1H-inden-5-yl)oxy)methyl)benzamide] | < 100 nM |
| COc1nc(OCc2cccc(-c3ccccc3)c2C)c2c(c1CNCCNC(C)=O)CCC2 [Compound 97, N-(2-(((3-methoxy-1-((2-methyl-[1,1′-biphenyl]-3-yl)methoxy)-6,7-dihydro-5H-cyclopenta[c]pyridin-4-yl)methyl)amino)ethyl)acetamide] | < 100 nM |
| COc1cc(OCc2cccc(-c3ccccc3)c2C)c2c(c1CN1CCOC[C@H]1C(=O)O)CCC2 [Compound 98, (S)-4-((5-methoxy-7-((2-methyl-[1,1′-biphenyl]-3-yl)methoxy)-2,3-dihydro-1H-inden-4-yl)methyl)morpholine-3-carboxylic acid] | < 100 nM |
